Laboratory results as given in patent US11000627B2, “Treatment of implants with phosphonic acid compounds” (Nano Bridging Molecules SA, priority 2016, dated 2021).
Marks after values point to notes of the source that are not given here.

How the values were obtained:
Type in all cases: physicochemical
[1] = XPS phosphorus over metal ratio on Titanium grade 4 cylinders; conditions: 0.7 mM, Metal = Ti2p
Procedure: Two Titanium grade 4 cylinders (bulk composition atomic concentration Titanium 100%; length 6.0 mm, diameter 2.4 mm) were provided with a roughened surface, produced by sand blasting and acid etching according to industry standards. The cylinders were immersed in 6 ml of a 2% (v/v) aqueous solution of deconex 15 PF-x (which is a phosphate free, potassium hydroxide based standard cleaning agent). The solution was placed in an ultrasonic bath (output frequency 30 kHz) and sonicated at 65° C. for 15 min. The cylinders were removed from the cleaning agent solution and rinsed with water as follows: 2 times with 10 ml, swirling at room temperature; 4 times with 10 ml, sonicating for 2 min at 65° C.; 1 time with 10 ml, swirling at room temperature. The cylinders were then placed into 6 ml of a 0.7 mM aqueous solution of 1,1,3,3-propane tetraphosphonic acid. The solution was placed in the ultrasonic bath and sonicated at 65° C. for 15 min. The cylinders were rinsed with water as follows: 2 times with 10 ml, swirling at room temperature; 1 time with 10 ml, sonicating for 2 min at 65° C.; 1 time with 10 ml, swirling at room temperature. The cylinders were dried in a desiccator over P2O5 and under vacuum (ca 20 mbar) for at least 3 hours.
Two Titanium grade 4 cylinders (bulk composition atomic concentration Titanium 100%; length 6.0 mm, diameter 2.4 mm) were provided with a roughened surface, produced by sand blasting and acid etching according to industry standards. The cylinders were immersed in 6 ml of a 2% (v/v) aqueous solution of deconex 15 PF-x (which is a phosphate free, potassium hydroxide based standard cleaning agent). The solution was placed in an ultrasonic bath (output frequency 30 kHz) and sonicated at room temperature for 15 min. The cylinders were removed from the cleaning agent solution and rinsed with water as follows: 2 times with 10 ml, swirling at room temperature; 4 times with 10 ml, sonicating for 2 min at room temperature; 1 time with 10 ml, swirling at room temperature. The cylinders were then placed into 6 ml of a 0.7 mM aqueous solution of 1,1,3,3-propane tetraphosphonic acid. The solution was swirled thoroughly and left to stand at room temperature for 15 min. The cylinders were rinsed with water as follows: 2 times with 10 ml, swirling at room temperature; 1 time with 10 ml, sonicating for 2 min at room temperature; 1 time with 10 ml, swirling at room temperature. The cylinders were dried in a desiccator over P2O5 and under vacuum (ca 20 mbar) for at least 3 hours.

[2] = XPS phosphorus over metal ratio on ceramic dental implants; conditions: sonicated 70° C. 60 min, Metal = Al2s + Zr3d + Y3d
Procedure: A ceramic dental implant (alumina toughened zirconia, yttria stabilized; length 11.0 mm, diameter 3.8 mm) was provided with a smooth surface. The dental implant was immersed in 50 ml of a 2% (v/v) aqueous solution of deconex 15 PF-x (which is a phosphate free, potassium hydroxide based standard cleaning agent). The solution was placed in an ultrasonic bath (output frequency 30 kHz) and sonicated at 70° C. for 15 min. This step was repeated a second time. The implant was removed from the cleaning agent solution and rinsed with water as follows: 2 times with 50 ml, swirling at room temperature; 3 times with 50 ml, sonicating for 2 min at 70° C. The implant was then placed into 15 ml of a 0.7 mM aqueous solution of 1,1,3,3-propane tetraphosphonic acid. The solution was placed in the ultrasonic bath and sonicated at 70° C. for 60 min. The implant was rinsed with water as follows: 1 time with 10 ml, swirling at room temperature; 2 times with 10 ml, sonicating for 2 min at 65° C.; 1 time with 10 ml, swirling at room temperature. The dental implant was dried in a desiccator over P2O5 and under vacuum (ca 20 mbar) for at least 3 hours.
Following the surface treatment with one phosphonic acid compound as described in Examples 1 to 7 the samples were analyzed by X-ray photoelectron spectroscopy (XPS). XPS analyses were performed on an Axis Ultra spectrometer from Kratos (Kratos, Manchester, U.K.) equipped with a concentric hemispherical analyzer and using a monochromatized aluminum anode X-ray source (Al Kα1,2 1486.6 eV, full width at half maximum, fwhm=0.85 eV, 15 kV, 150 W). The samples were investigated under ultrahigh vacuum conditions: 10^−8-10^−7 Pa. Spectra were taken at a 90° takeoff angle with respect to the surface. A sample area of 300×700 μm^2 or 700×700 μm^2 was analyzed with a pass energy of 80.0 eV for survey scans. The spectrometer was calibrated by using Cu 2p3/2 (932.7 eV) and Au 4f7/2 (84.0 eV) signals. Surface sensitivity factors used to determine the atomic concentrations were those of the instrument. Spectra were peak fitted after background subtraction by assuming a Gaussian/Lorentzian (90-70/10-30) peak shape. All peaks between 0 eV to 1200 eV were inspected.
The phosphorus over metal ratio (“Phosphorus/Metal”) was calculated dividing the % atomic concentration of phosphorus by the sum of the % atomic concentrations of all metals expected in the analyzed sample.
Four ceramic dental implants (alumina toughened zirconia, yttria stabilized; length 11.0 mm, diameter 3.8 mm) were provided with a smooth surface. The dental implants were immersed in 300 ml of a 2% (v/v) aqueous solution of deconex 15 PF-x (which is a phosphate free, potassium hydroxide based standard cleaning agent). […] The samples were analyzed by X-ray photoelectron spectroscopy (XPS). […]

[3] = Thickness of phosphonic acid layer by depth profiling using XPS; conditions: for Phosphorus/Metal: Metal = Zr3d + Y3d
Procedure: Two ceramic discs (yttria stabilized zirconia; length 5.0 mm, diameter 1.0 mm) were provided with a roughened surface, produced by sand blasting and acid etching according to industry standards. The discs were immersed in 80 ml of a 2% (v/v) aqueous solution of deconex 15 PF-x (which is a phosphate free, potassium hydroxide based standard cleaning agent). The solution was placed in an ultrasonic bath (output frequency 30 kHz) and sonicated at 70° C. for 15 min. This step was repeated a second time. The discs were removed from the cleaning agent solution and rinsed with water as follows: 2 times with 90 ml, swirling at room temperature; 3 times with 90 ml, sonicating for 2 min at 70° C. The discs were then placed into 2 glass bottles and immersed into 2.5 ml of a 0.7 mM aqueous solution of 1,1,3,3-propane tetraphosphonic acid. The solutions were placed in the ultrasonic bath and sonicated at 70° C. for 60 min. The discs were rinsed with water as follows: 1 time with 10 ml, swirling at room temperature; 1 time with 10 ml, sonicating for 2 min at 65° C.; 1 time with 10 ml, swirling at room temperature. The discs were dried in a desiccator over P2O5 and under vacuum (ca 20 mbar) for at least 3 hours.
Following the surface treatment, the thickness of the phosphonic acid layer was determined by depth profiling using XPS. Ion gun sputtering cycles were alternated with XPS measurements. An ion gun was used to etch the material for a defined period of time. Once turned off, XPS spectra were acquired. The depth profiles were performed using a Kratos AXIS Nova high resolution spectrometer. An Al-standard source was used for the measurement. Depth profile sputtering was performed by scanning a 3.8 keV Ar+ beam at 100 μA extractor current over an area of 4 mm×4 mm. The sputter rate of Ta2O5 standards measured under these conditions (6 nm/min) was used to convert sputter time in approximate sputter depth. Spectra were measured after the following sputtering times: 0, 5, 10, 15, 20, 30, 40, 60 sec. Spectra were peak fitted after background subtraction by assuming a Gaussian/Lorentzian (90-70/10-30) peak shape. All peaks between 0 eV to 1200 eV were inspected.
The phosphorus peak was measured at % atomic concentrations close to the detection limit (0.5%) after 10 seconds of sputtering.

Q: What does the source list for `O=P(O)(O)C(CC(P(=O)(O)O)P(=O)(O)O)P(=O)(O)O` [1,1,3,3-propane tetraphosphonic acid]?
A: Phosphorus/Metal ([1]; Phosphonic acid 5 min, sonicated 65° C.): 0.24^b; Phosphorus/Metal ([1]; Phosphonic acid 10 min, sonicated 65° C.): 0.28^b; Phosphorus/Metal ([1]; Phosphonic acid 30 min, sonicated 65° C.): 0.30^b; Phosphorus/Metal ([1]; Phosphonic acid 60 min, sonicated 65° C.): 0.28^b; Phosphorus/Metal ([1]; all steps sonicated at 40° C., 15 min): 0.22^b; Phosphorus/Metal ([1]; all steps sonicated at 50° C., 15 min): 0.26^b; Phosphorus/Metal ([1]; all steps sonicated at 60° C., 15 min): 0.25^b; Phosphorus/Metal ([1]; all steps sonicated at 70° C., 15 min): 0.25^b; Phosphorus/Metal ([1]; all steps sonicated at 80° C., 15 min): 0.27^b; Phosphorus/Metal ([1]; all steps sonicated at 90° C., 15 min): 0.27^b; Phosphorus/Metal ([1]; pre-treatment Deconex 15PF-x 5 min, sonicated 65° C. 15 min): 0.36^b; Phosphorus/Metal ([1]; pre-treatment Deconex 15PF-x 15 min, sonicated 65° C. 15 min): 0.32^b; Phosphorus/Metal ([1]; pre-treatment Deconex 15PF-x 30 min, sonicated 65° C. 15 min): 0.32^b; Phosphorus/Metal ([2]; 0.7 mM): 0.12; Phosphorus/Metal ([2]; 2.5 mM): 0.12; Phosphorus/Metal ([2]; 5 mM): 0.11; Phosphorus/Metal ([2]; 10 mM): 0.12; thickness of monolayer ([3]; 0.7 mM, sonicated 70° C. 60 min, sputter depth from Ta2O5 standard rate): about 1 nm; Phosphorus/Metal ([3]; sputtering 0 sec, depth 0 nm): 0.18^b; Phosphorus/Metal ([3]; sputtering 5 sec, depth 0.5 nm): 0.03^b; Phosphorus/Metal ([3]; sputtering 10 sec, depth 1 nm): 0.02^b; Phosphorus/Metal ([3]; sputtering 15 sec, depth 1.5 nm): 0.02^b; Phosphorus/Metal ([3]; sputtering 20 sec, depth 2 nm): 0.01^b; Phosphorus/Metal ([3]; sputtering 30 sec, depth 3 nm): 0.02^b; Phosphorus/Metal ([3]; sputtering 40 sec, depth 4 nm): 0.01^b; Phosphorus/Metal ([3]; sputtering 60 sec, depth 6 nm): 0.00^b
